These are literature values, as cited in US20100022600A1, “METHODS AND COMPOSITIONS FOR TREATING CENTRAL NERVOUS SYSTEM TUMORS” (priority 2006, published 2010).

For one data set, the system named is cholesterol biosynthesis. The following applies: PPARγ-independent; Diabetes 1999; 48: 254-60; cited from earlier work.
The next data set deals with acyl-CoA synthetase. The following applies: PPARγ-independent; J Biol Chem 2001; 276: 33736-40; cited from earlier work.
The next data set has as its system BT4Cn rat glioma cells. The following applies: Carcinogenesis 2001; 22: 1747-55; cited from earlier work.
The test system of the next data set is C6 cells. The following applies: J Neurochem 2002; 81: 1052-60; cited from earlier work.

For `Cc1c(C)c2c(c(C)c1O)CCC(C)(COc1ccc(CC3SC(=O)NC3=O)cc1)O2` (single isomer, unassigned; (+)) [troglitazone, (+)-5 [[4-[(3,4-dihydro-6-hydroxy-2,5,7,8-tetramethyl-2H-1-benzopyran-2-yl)methoxy]phenyl]methyl]-2,4thiazolidinedione], in the data set with cholesterol biosynthesis, the cholesterol biosynthesis entry is “inhibit”. In addition, the acyl-CoA synthetase result in the data set on acyl-CoA synthetase is on record as “inhibit”.

In the case of `O=C(Nc1ccccc1)c1cc([N+](=O)[O-])ccc1Cl` [GW9662], the “effect on growth inhibition by PPARγ agonists” value with BT4Cn rat glioma cells was “abolished”.

As for `CC1(COc2ccc(CC3SC(=O)NC3=O)cc2)CCCCC1` (stereo not shown) [ciglitazone, 5-[4-[(1-methylcyclohexyl)methoxy]benzyl]thiazolidine-2,4-dione], the “redifferentiation of C6 cells” value in the data set with C6 cells was “increased redifferentiation”.
